Structures are written as SMILES. pIC50: −log10 of the molar value.

Data on five compounds can be found in ChEMBL document CHEMBL1126452, “Synthesis of stereochemically defined phosphonamidate-containing peptides: Inhibitors for the HIV-1 proteinase” (Bioorg Med Chem Lett, 1992).

The test concerns the target Human immunodeficiency virus type 1 protease (Human immunodeficiency virus 1, UniProt Q72874). In words: Inhibitory concentration against HIV-1 Protease at pH 5.6 and at 37 degrees C.
One may read the pIC50 as −log10 of the IC50, conventionally taken in molar units. With `CCC(C)[C@H](NC(=O)[C@@H]1CCCN1P(=O)(O)C(Cc1ccccc1)NC(=O)[C@H](CC(N)=O)NC(=O)OC(C)(C)C)C(=O)NCC(C)C` (stereo not given in full), the pIC50 was 3.93.
The same measure for `CCC(C)[C@H](NC(=O)[C@@H]1CCCN1P(=O)(OC)C(Cc1ccccc1)NC(=O)[C@H](CC(N)=O)NC(=O)OC(C)(C)C)C(=O)NCC(C)C` (single isomer, unassigned): 4.36; for `CCC(C)[C@H](NC(=O)[C@@H]1CCCN1P(=O)(OC)[C@@H](Cc1ccccc1)NC(=O)[C@H](CC(N)=O)NC(=O)OC(C)(C)C)C(=O)NCC(C)C` (single isomer, unassigned): 3.24; for `CCC(C)[C@H](NC(=O)[C@@H]1CCCN1P(=O)(OC)[C@H](Cc1ccccc1)NC(=O)[C@H](CC(N)=O)NC(=O)OC(C)(C)C)C(=O)NCC(C)C` (single isomer, unassigned; 2a): 3.85.
`CCC(C)[C@H](NC(=O)[C@@H]1CCCN1P(=O)(OC)[C@H](Cc1ccccc1)NC(=O)[C@H](CC(N)=O)NC(=O)OC(C)(C)C)C(=O)NCC(C)C` (single isomer, unassigned; 2d) had a pIC50 of 3.87.
